# pKi: −log10 of the molar value.
# Target: Metabotropic glutamate receptor 2 (Homo sapiens, UniProt Q14416)
# Sequence (Q14416 whole entry): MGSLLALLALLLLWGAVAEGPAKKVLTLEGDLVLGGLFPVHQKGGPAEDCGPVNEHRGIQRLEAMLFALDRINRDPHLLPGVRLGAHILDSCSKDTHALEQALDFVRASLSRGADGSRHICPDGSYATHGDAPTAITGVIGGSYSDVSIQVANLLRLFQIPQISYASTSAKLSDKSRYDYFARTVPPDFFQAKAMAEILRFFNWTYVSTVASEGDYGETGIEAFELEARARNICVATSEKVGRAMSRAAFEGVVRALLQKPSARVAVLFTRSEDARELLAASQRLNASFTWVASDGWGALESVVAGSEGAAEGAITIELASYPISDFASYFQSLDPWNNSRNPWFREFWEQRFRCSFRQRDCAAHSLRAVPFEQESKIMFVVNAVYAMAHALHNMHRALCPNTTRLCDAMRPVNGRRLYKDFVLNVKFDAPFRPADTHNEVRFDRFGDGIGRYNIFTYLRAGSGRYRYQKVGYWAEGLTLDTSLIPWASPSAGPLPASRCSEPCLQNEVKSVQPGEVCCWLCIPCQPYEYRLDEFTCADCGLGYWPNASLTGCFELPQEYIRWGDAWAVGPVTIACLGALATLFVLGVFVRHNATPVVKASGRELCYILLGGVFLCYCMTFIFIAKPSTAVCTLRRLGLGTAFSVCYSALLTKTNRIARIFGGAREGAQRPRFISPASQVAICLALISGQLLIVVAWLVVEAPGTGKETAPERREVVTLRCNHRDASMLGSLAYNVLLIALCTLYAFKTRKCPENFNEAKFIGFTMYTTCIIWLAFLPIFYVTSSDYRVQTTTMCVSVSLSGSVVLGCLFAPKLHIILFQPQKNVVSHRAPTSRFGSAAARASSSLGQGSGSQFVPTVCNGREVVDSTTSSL
row,SMILES,pKi
1,C[C@@](N)(C(=O)O)c1ccc(C(=O)O)cc1 (racemic),6.48
2,N[C@H](C(=O)O)C1[C@@H](C(=O)O)[C@@H]1C(=O)O (stereo partly specified) [DCG-IV],9.43
3,N[C@H](C(=O)O)[C@H]1C[C@H]1C(=O)O [L-CCG-IV],9.42
4,"N[C@@H](Cn1oc(=O)[nH]c1=O)C(=O)O [2-amino-3-(3,5-dioxo[1,2,4]oxadiazolidin-2-yl)propionic acid]",6.75
5,NC(Cn1cnc2c(=O)[nH]c(=O)[nH]c21)(C(=O)O)C1CC1C(=O)O (stereo unspecified) [CAS_5311260],10.11
6,N[C@H](CP(=O)(O)O)C(=O)O [CAS_23052-80-4],6.58
7,"N[C@@]1(C(=O)O)CC[C@H](C(=O)O)C1 [1S, 3R-ACPD]",8.03
8,C[C@](N)(C(=O)O)C1C[C@@H]1C(=O)O (stereo partly specified) [MCCG-I],7.16
9,CC(N)(C(=O)O)c1ccc(P(=O)(O)O)cc1 (stereo unspecified),6.59
10,CCC(N)(CCC(=O)O)C(=O)O (stereo unspecified) [CAS_5311079],6.42
11,N[C@@H](CCP(=O)(O)O)C(=O)O,6.17

# Source: BindingDB's records for doi:10.1046/j.1471-4159.1998.71062558.x (F. Hoffmann-La Roche, 1998)
